Data from PMC4222603, “Dual inhibition of HIV-1 replication by integrase-LEDGF allosteric inhibitors is predominant at the post-integration stage” (Retrovirology, 2013).
Like-named read-outs stand apart in the source and are kept apart here.

Tests used:
[1] = tested on: NL4-3 RT M41L, D67N, T69N, K70R, T215F, K219E; test: Antiviral assay on NRTI-resistant virus; assay type: cell-based, HIV-1; conditions: ratio EC50 resistant virus / wt virus
NL4-3 RT K103N, Y181C = test: Antiviral assay on NNRTI-resistant virus; assay type: cell-based, HIV-1; conditions: ratio EC50 resistant virus / wt virus
[2] = tested on: NL4-3 Protease L10R, M46I, L63P, V82T, I84V; test: Antiviral assay on PI-resistant virus; assay type: cell-based, HIV-1; conditions: ratio EC50 resistant virus / wt virus
[3] = tested on: VSV-G-pseudotyped NL4-3Δenv-luc; test: microbe, parasite or virus in culture; assay type: cell-based, HIV-1; conditions: for EC50: Human immunodeficiency virus 1, NL43, MT4, read-out: NL4-3 EC50 Single-round
HIV-1 NL4-3 = test: Antiviral assay in MT-4 cells, multiple-round infection, CellTiter-Glo; assay type: cell-based
Method: MT-4 cells growing exponentially at the density of 10^6/mL were infected with HIV-1 strain NL4-3 at a MOI (multiplicity of infection) of 0.001 for 2 h. The cells were washed with PBS and aliquoted, using 100 μL fresh complete RPMI, into 96-well white plates (Corning) in the presence of different concentrations of compounds.

[4] = tested on: NL4-3 RT M41L, D67N, K103N, M184V, L210W, T215Y; test: Antiviral assay on Multi-drug (NRTI + NNRTI) resistant virus; assay type: cell-based, HIV-1; conditions: ratio EC50 resistant virus / wt virus; NRTI + NNRTI mutations
[5] = tested on: NL4-3 Integrase G140S, Q148H; test: Antiviral assay on INSTI-resistant virus; assay type: cell-based, HIV-1; conditions: ratio EC50 resistant virus / wt virus
IN-LEDGF/p75 interaction = IN-LEDGF/p75 interaction (Human immunodeficiency virus type 1 group M subtype B, UniProt P12497); test: biochemical; conditions: IN-LEDGF IC50, Table 1; HTRF, full length proteins
Method: IN-LEDGF HTRF® assay was performed in 384-well low volume black polystyrene plates (Corning) using IN-LEDGF assay buffer (25 mM Tris–HCl pH 7.4, 150 mM NaCl, 2 mM MgCl2, 0.4 M KF, 0.1% Igepal CA-630, 0.1% bovine serum albumin, 1 mM DTT). […] The HTRF ratio was converted to % inhibition and analyzed by fitting a sigmoidal dose–response equation with Hill slope to determine the IC50 of the compound.

in vitro = assay type: cell-based; conditions: human
Method: Growth inhibition was monitored in a proliferating human T-cell line (MT-4) with different concentrations of compounds. ATP levels were quantified using the CellTiter-Glo® luminescent reagent (Promega) to measure the ability of a compound to inhibit cell growth, an indication of the compound’s cytotoxicity. Cytotoxicity was evaluated at either day 2 or day 5.

HxB2 HIV-1 = test: Antiviral assay in MT4 cells infected with HxB2; assay type: cell-based; conditions: Human immunodeficiency virus 1, HXB2, MT4; Table 1; read-out: HxB2 EC50 (MT4 assays)
[6] = molecular target: T1, IN-CCD/LEDGF-IBD interaction (Human immunodeficiency virus type 1 group M subtype B, UniProt P12497, F1332K); test: HTRF-based CCD-IBD interaction assay; assay type: binding, HIV-1; conditions: Table 1
T1 construct: cloning the integrase region (residues 50 to 202, encoding the catalytic core domain); made in house
Excerpt: All HTRF® conjugated monoclonal antibodies were purchased from Cisbio Bioassays.

[7] = molecular target: T2, IN strand transfer activity (Human immunodeficiency virus type 1 group M subtype B, UniProt P12497); test: IN strand transfer ELISA assay; assay type: biochemical, HIV-1; conditions: for IC50: Table 1, ELISA, read-out: IN ST IC50; for IN ST plateau (%): inhibition plateau, concentrations up to 100 μM
T2 construct: loaded on a Superdex 200 16/600 PG column (for full length IN); made in house
Method: IN strand transfer ELISA assay has been adapted from. […] 16 μL of IN mixture (20 mM HEPES pH 7.5, 10 mM MgCl2, 1 mM DTT, 0.50 μM His6-IN) was added. […] The reaction was stopped by addition of 60 μL stop mixture (20 mM Tris–HCl pH 7.6, 0.4 M NaCl, 10 mM Na2EDTA, 0.1 mg/mL salmon sperm DNA) and the volume transferred to Reacti-Bind high-binding capacity streptavidin-coated white plates (Thermo Scientific Pierce). After 1 h incubation at room temperature under gentle shaking, integrase and unjoined DNA were removed by three washes with 200 μL wash solution 1 (30 mM NaOH, 0.2 M NaCl, 1 mM Na2EDTA). 100 μL of 2000-fold diluted HRP-conjugated anti-DIG Fab (Roche Applied Science) was added and the plate was incubated for 1 h at 37°C. Unbound antibody was removed with wash solution 2 (PBS pH 7.4, 0.05% Tween-20, 0.1% bovine serum albumin), 100 μL of SuperSignal Femto ELISA substrate (Thermo Scientific Pierce) was added and chemiluminescence was immediately read in a PHERAstar Plus with LUM-plus module. The signal, converted to % inhibition, was analyzed by fitting a sigmoidal dose–response curve to determine IC50 and the inhibition plateau.

[8] = tested on: HIV-1 LAV virions produced by HeLa-LAV cells; test: Virions produced by compound-treated HeLa-LAV cells: p24 and infectivity; assay type: cell-based; conditions: luciferase assay in TZM cells
HIV-1 NL4-3 wt = assay type: cell-based; conditions: HEK293T transfection, MT4 infection, CellTiter-Glo
[9] = tested on: NL4-3 IN T174I mutant virus; assay type: cell-based, HIV-1; conditions: HEK293T transfection, MT4 infection, CellTiter-Glo
[10] = Human immunodeficiency virus 1, NL43, MT4, Table 3, mean of two independent experiments, read-out: EC50 NL4-3 WT
[11] = Human immunodeficiency virus 1, NL43, MT4 cells, mean of six independent experiments, read-out: NL4-3 EC50 Multiple-round
[12] = Human immunodeficiency virus 1, NL43, MT4, Table 1, read-out: NL4-3 EC50 (MT4 assays)

Structure (SMILES) | EC50 fold change NRTIs [1] | EC50 fold change NNRTIs (NL4-3 RT K103N, Y181C) | EC50 fold change PI [2] | EC50 [3] [nM] | EC50 (HIV-1 NL4-3; [10]) [nM] | EC50 fold change Multi-drug [4] | EC50 fold change INSTIs [5] | SR/MR ratio [3] | EC50 (HIV-1 NL4-3; [11]) [nM] | IC50 (IN-LEDGF/p75 interaction) [µM] | CC50 (in vitro) [µM] | EC50 (HxB2 HIV-1) [nM] | IC50 [6] [µM] | EC50 (HIV-1 NL4-3; [12]) [nM] | IC50 [7] [nM] | also measured
Cc1cn([C@H]2C[C@H](N=[N+]=[N-])[C@@H](CO)O2)c(=O)[nH]c1=O [AZT, Zidovudine] | 88 | 0.1 | 1 | 2.5 ± 0.3 | 140 | 10 | 0.4 |  |  |  |  |  |  |  |  | 
O=C1Nc2ccc(Cl)cc2[C@@](C#CC2CC2)(C(F)(F)F)O1 [EFV, Efavirenz, reference compound] |  |  |  | 1.2 ± 0.4 |  |  |  | 0.9 | 1.3 ± 0.2 |  |  |  |  |  |  | 
COc1cc2c(cc1Cc1cccc(Cl)c1F)c(=O)c(C(=O)O)cn2[C@H](CO)C(C)C [EVG, Elvitegravir] | 0.3 | 1 | 1 | 0.42 ± 0.05 | 3 | 0.3 | 2036 | 0.5 | 0.86 ± 0.4 |  |  |  |  |  |  | 
CC(C)(C)NC(=O)[C@@H]1CN(Cc2cccnc2)CCN1C[C@@H](O)C[C@@H](Cc1ccccc1)C(=O)N[C@H]1c2ccccc2C[C@H]1O [IDV, Indinavir] | 1 | 1 | 9 |  | 32 | 1 | 1 |  | 36 |  |  |  |  |  |  | NL4-3 EC50 Single-round [3]: Inactive
CC(C)(C)OC(C(=O)O)c1c(-c2ccc3c(c2)CCCO3)ccc2ncccc12 (stereo not drawn) [Mut029, 2-(tert-butoxy)-2-[6-(3,4-dihydro-2H-1-benzopyran-6-yl)quinolin-5-yl]acetic acid] |  |  |  | 30000 ± 4000 |  |  |  | 8 | 3800 ± 1600 | 2.5 | > 50 | 3800 | 1.7 | 3800 |  | 
CC(C)(C)OC(C(=O)O)c1c(-c2ccc3c(c2)CCCO3)ccc2ccccc12 (stereo not drawn) [Mut047, 2-(tert-butoxy)-2-[2-(3,4-dihydro-2H-1-benzopyran-6-yl)naphthalene-1-yl]acetic acid] |  |  |  | 37000 ± 2000 |  |  |  | 2.3 | 16000 ± 7000 | 7.9 | > 50 | 19000 | 3.8 | 16000 | 880 | IN ST plateau (%) [7]: 70%
Cc1nc2ccccc2c(C2CCCCC2)c1C(OC(C)(C)C)C(=O)O (stereo not drawn) [Mut049, 2-(tert-butoxy)-2-(4-cyclohexyl-2-methylquinolin-3-yl)acetic acid] |  |  |  | 41000 ± 2000 |  |  |  | 21 | 2000 ± 100 | 3.5 | > 50 | 750 | 18 | 2000 | 180 | IN ST plateau (%) [7]: 56%
CC(C)(C)OC(C(=O)O)C1=C(c2ccc3c(c2)CCCO3)c2ccccc2OC1 (stereo not drawn) [Mut062, 2-(tert-butoxy)-2-[4-(3,4-dihydro-2H-1-benzopyran-6-yl)-2H-chromen-3-yl]acetic acid] |  |  |  |  |  |  |  | >25 | 3300 ± 1500 | 3.1 | > 50 | 1300 | 2.7 | 3300 | 540 | Inhibition in single-round infection assay [3]: 30% @50; IN ST plateau (%) [7]: 73%
CC(C)(C)OC(C(=O)O)c1ccc(Oc2ccccc2)cc1-c1ccc2c(c1)CCCO2 (stereo not drawn) [Mut063, 2-(tert-butoxy)-2-[2-(3,4-dihydro-2H-1-benzopyran-6-yl)-4-phenoxyphenyl]acetic acid] |  |  |  |  |  |  |  |  |  | > 100 | > 50 |  | > 100 | > 50000 | > 100000 | Infectivity of virions from treated HeLa-LAV cells [8]: no infectivity defect
Cc1nc2c(c(-c3ccccc3)c1C(OC(C)(C)C)C(=O)O)CCCC2 (stereo not drawn) [Mut075, 2-(tert-butoxy)-2-(2-methyl-4-phenyl-5,6,7,8-tetrahydro-quinolin-3-yl)acetic acid] |  |  |  |  |  |  |  | >25 | 3400 ± 1000 | 4 | > 50 | 1000 | 14 | 3400 |  | Inhibition in single-round infection assay [3]: 23% @50
Cc1ccnc2c1NC(=O)c1cccnc1N2C1CC1 [NVP, Nevirapine] | 3 | 287 | 1 | 41 ± 8 | 160 | 14 | 1 |  | 86 ± 12 |  |  |  |  |  |  | 
Cc1nnc(C(=O)NC(C)(C)c2nc(C(=O)NCc3ccc(F)cc3)c(O)c(=O)n2C)o1 [RAL, Raltegravir, reference compound] |  |  |  | 2.5 ± 0.3 |  |  |  |  |  |  |  |  |  |  |  | Infectivity of NL4-3 wt virus produced in presence of compound (HIV-1 NL4-3 wt): no effect; Infectivity of virions from treated HeLa-LAV cells [8]: no infectivity defect; EC50 (HIV-1 NL4-3; Human immunodeficiency virus 1, NL43, MT4, read-out: EC50 NL4-3 WT): 7 nM; EC50 (HIV-1 NL4-3; Human immunodeficiency virus 1, NL43, MT4, read-out: NL4-3 EC50 Multiple-round): 2.4 ± 0.6 nM; Infectivity of NL4-3 IN T174I virus produced in presence of compound [9]: no effect
